Source: ChEMBL document CHEMBL1201862, “PubChem BioAssay data set” (2004)
Active and inactive are the calls of the source.

Legend:
[1] = HeLa 2N DNA content increase, dose response, cell-based, IC50 (AID 1117349); type: functional
[2] = HeLa 4N DNA content increase, dose response, cell-based, IC50 (AID 1117351); type: functional
[3] = biological target: Endoplasmic reticulum aminopeptidase 1 (Homo sapiens, UniProt Q9NZ08); test: ERAP1 aminopeptidase inhibitors, dose response, biochemical, cherry-pick, set 2, plate reader (AID 743314)
Kallikrein-7 = Kallikrein-7 (Homo sapiens, UniProt P49862); test: Fluorescence Intensity-based biochemical primary high throughput dose response assay to identify activators of kallikrein-7 (K7) zymogen.
Streptokinase A = biological target: T1, Streptokinase A (Streptococcus pyogenes serotype M1, UniProt P10520); test: S. pyogenes streptokinase expression inhibitors, potency, dose response, plasminogen activation absorbance, OD405 (AID 1914); type: functional, Streptococcus pyogenes M1 GAS;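 note: secreted streptokinase activity via plasminogen activation per viability signal from cell pellet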
T1 sequence (P10520 whole entry): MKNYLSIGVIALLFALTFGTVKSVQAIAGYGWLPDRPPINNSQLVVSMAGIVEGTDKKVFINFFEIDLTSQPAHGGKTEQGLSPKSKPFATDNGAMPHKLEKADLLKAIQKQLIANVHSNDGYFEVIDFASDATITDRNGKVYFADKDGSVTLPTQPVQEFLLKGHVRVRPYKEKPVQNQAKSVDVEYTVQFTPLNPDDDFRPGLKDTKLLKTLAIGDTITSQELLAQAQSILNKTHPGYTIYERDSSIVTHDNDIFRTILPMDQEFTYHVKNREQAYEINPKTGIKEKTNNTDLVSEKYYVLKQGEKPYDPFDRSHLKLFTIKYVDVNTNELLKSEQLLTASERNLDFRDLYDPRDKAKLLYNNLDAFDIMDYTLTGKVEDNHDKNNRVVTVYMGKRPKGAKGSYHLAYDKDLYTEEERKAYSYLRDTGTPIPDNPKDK

[4] = inhibitors of HIV Env-driven cell fusion, dose response, cherry-pick (AID 652057); type: functional, cell-based
[5] = HEK293T cytotoxicity, dose response, cytotoxicity control for miR-122 modulator project, cell-based, activator set, cherry-pick (AID 720690); type: functional;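 note: HEK293T human cells scored for general mammalian cytotoxicity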
Streptococcus = test: Group A Streptococcus viability loss, dose response, counter-screen for streptokinase expression inhibitor project, luminescence, BacTiterGlo (AID 1915); type: functional, organism-based;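 note: potency for reduction of bacterial viability or growth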
[6] = CEM21 lymphoblast cell cytotoxicity, dose response, cytotoxicity control for viral fusion inhibitor project, CellTiter-Glo luminescence, cherry-picked (AID 652042); type: functional, cell-based;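 note: potency for signal decrease meaning cytotoxicity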
HEK293 [7] = test: cells; type: functional, cell-based; conditions: Homo sapiens
INS1 = test: beta cell apoptosis inhibitors, cytokine rescue, dose response, luminescence, retest (AID 449756); type: functional, cell-based; conditions: Rattus norvegicus;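 note: cell death triggered by IL-1 beta plus TNF-alpha plus IFN-gamma mixture; protective hits raise ATP signal compared with cytokine alone wells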
HEK293 [8] = test: NOD1 signaling inhibitors, primary screen, cell-based, luminescence, uHTS (AID 1578); type: functional; conditions: Homo sapiens
HEK293 [9] = test: cells; type: functional, cell-based; conditions: Homo sapiens; remark: listed apart in the source
[10] = off-target signal loss in HeLa-CEM21 co-culture – HeLa F-luc CTL cells, cherry-picked, counter-screen for HIV-1 Env fusion inhibitor project, dose response (AID 652040); type: functional, cell-based;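 note: potency for signal decrease marking cytotoxic or nonspecific inhibition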
HEK293 [11] = test: NOD2 signaling inhibitors in MDP-stimulated cells, cell-based, uHTS, luminescence (AID 2001); type: functional; conditions: Homo sapiens
[12] = inhibitors of clade B AD8 Env fusion, dose response, cell-based, cherry-pick (AID 652062); type: functional;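 note: luciferase signal from cell-cell fusion driven by HIV-1 clade B AD8 Env; potency is for inhibitors of fusion seen as a drop in luminescence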
[13] = HEK293T cytotoxicity, dose response, cytotoxicity control for miR-122 modulator project, cell-based, inhibitor set, cherry-pick, set 2 (AID 720697); type: functional
[14] = miR-122 activators in hepatoma reporter cells, dose response, cell-based, Huh7 psiCHECK-miR122, Renilla luciferase, cherry-picked (AID 651956); type: functional;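 note: huh7 hepatoma cells stably carrying a psiCHECK-2 miR-122 sensor plasmid; renilla luciferase signal reporting endogenous miR-122 activity after 48 h compound exposure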
[15] = system: Streptococcus sp. 'group A'; test: growth inhibition of control SK(-) GAS strain, dose response, counter-screen for streptokinase expression inhibitor project, luminescence, kanamycin, BacTiterGlo, confirmation (AID 1900); type: functional, organism-based; conditions: read-out: EC50
[16] = ZM109 Env clade C HIV-1 fusion inhibitors, dose response, HeLa effector, CEM target cells, luciferase, cherry-pick (AID 652058); type: functional, cell-based
Vero = test: cells; type: functional; conditions: Chlorocebus sabaeus
[17] = HepG2 cell cytotoxicity, dose response, cytotoxicity control, ATP luminescence, cherry-pick, activator set 2 (AID 1053143); type: functional, cell-based
[18] = NIH-3T3 fibroblast cytotoxicity, dose response, cytotoxicity control, cell-based, fluorescence, Alamar Blue, secondary assay (AID 2327); type: functional;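 note: NIH-3T3 mouse fibroblasts cultured with fluconazole at 8 µg/mL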
Aminopeptidase N = biological target: T2, Aminopeptidase N (Plasmodium falciparum FcB1/Columbia, UniProt O96935); test: P. falciparum M1AAP inhibitors, biochemical, fluorogenic H-Leu-NHMec substrate, 1536-well (AID 1445); parameters: species or system Plasmodium falciparum 3D7, 3D7
T2 sequence (O96935 whole entry): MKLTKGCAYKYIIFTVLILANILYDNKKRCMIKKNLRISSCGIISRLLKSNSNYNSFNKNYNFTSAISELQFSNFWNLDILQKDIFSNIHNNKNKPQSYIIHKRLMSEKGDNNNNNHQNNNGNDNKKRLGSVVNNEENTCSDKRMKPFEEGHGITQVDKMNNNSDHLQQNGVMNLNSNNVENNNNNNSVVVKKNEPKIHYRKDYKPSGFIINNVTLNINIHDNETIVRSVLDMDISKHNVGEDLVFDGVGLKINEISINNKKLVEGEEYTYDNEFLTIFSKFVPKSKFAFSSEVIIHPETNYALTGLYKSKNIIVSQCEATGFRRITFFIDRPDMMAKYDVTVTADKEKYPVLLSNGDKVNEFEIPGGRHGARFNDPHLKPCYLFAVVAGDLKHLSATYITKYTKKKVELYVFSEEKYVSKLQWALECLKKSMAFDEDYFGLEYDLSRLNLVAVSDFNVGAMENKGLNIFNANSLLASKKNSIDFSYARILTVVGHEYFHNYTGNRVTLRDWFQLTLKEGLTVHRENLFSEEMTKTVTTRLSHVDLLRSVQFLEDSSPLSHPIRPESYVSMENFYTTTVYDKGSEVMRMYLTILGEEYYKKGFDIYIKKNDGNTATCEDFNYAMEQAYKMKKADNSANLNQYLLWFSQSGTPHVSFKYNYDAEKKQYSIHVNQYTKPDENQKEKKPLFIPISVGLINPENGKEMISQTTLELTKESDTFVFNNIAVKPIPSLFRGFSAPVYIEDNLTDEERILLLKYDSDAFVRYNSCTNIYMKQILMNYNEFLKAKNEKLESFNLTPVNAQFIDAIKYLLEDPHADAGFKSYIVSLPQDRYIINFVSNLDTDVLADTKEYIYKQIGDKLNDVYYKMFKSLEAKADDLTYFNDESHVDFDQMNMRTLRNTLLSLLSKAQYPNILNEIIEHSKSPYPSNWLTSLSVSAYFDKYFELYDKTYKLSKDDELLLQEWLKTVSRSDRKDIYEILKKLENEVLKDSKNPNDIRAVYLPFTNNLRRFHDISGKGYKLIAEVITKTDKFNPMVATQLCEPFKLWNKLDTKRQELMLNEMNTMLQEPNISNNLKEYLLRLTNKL

[19] = C. albicans growth with fluconazole, confirmation, fluorescence, retest (AID 2467); type: functional, cell-based

Chain of Endoplasmic reticulum aminopeptidase 1 (Q9NZ08 whole entry): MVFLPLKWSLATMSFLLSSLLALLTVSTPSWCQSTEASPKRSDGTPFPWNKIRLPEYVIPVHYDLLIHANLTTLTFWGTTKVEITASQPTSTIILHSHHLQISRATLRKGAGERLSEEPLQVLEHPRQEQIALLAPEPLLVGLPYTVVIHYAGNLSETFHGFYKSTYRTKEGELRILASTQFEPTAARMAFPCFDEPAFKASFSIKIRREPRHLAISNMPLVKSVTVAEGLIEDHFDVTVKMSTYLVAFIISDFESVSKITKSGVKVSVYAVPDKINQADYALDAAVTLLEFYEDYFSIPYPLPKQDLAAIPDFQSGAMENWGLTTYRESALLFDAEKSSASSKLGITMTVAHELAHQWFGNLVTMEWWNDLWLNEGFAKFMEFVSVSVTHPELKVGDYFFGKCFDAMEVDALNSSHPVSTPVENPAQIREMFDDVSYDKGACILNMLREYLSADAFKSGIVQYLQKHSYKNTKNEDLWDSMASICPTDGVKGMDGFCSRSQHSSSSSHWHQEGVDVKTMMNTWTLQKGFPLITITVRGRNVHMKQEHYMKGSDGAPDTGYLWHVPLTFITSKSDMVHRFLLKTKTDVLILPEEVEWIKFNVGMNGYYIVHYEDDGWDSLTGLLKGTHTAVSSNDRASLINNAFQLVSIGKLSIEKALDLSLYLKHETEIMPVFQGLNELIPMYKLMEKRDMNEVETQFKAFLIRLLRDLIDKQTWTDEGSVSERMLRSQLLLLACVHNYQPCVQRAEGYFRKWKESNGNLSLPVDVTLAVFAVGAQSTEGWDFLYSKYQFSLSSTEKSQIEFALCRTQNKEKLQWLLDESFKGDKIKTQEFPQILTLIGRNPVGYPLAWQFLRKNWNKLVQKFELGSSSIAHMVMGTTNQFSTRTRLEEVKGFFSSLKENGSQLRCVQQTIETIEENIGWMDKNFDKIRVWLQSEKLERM
Chain of Kallikrein-7 (P49862 whole entry): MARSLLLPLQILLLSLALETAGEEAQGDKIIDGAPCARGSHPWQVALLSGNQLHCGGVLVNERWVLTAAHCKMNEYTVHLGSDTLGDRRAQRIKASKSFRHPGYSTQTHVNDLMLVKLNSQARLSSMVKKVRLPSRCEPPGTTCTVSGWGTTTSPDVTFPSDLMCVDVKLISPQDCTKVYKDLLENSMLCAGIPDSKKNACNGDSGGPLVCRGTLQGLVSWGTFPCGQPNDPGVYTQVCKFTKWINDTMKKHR

CCC(C)n1ncn(-c2ccc(N3CCN(c4ccc(OC[C@H]5CO[C@](Cn6cncn6)(c6ccc(Cl)cc6Cl)O5)cc4)CC3)cc2)c1=O (some centres undefined) [ITRACONAZOLE]
IC50 [1]: > 10 µM (inactive) | IC50 [2]: > 10 µM (inactive)

COC(=O)Cc1c(C)c2ccc(O)c(CNCc3ccc(OC)c(OC)c3)c2oc1=O
AC50 [3]: 3.51 µM (active) | EC50 (Kallikrein-7): > 0.858 µM (active)

O=C(Nc1ccc(OC(F)F)cc1)Nc1cccc(C(F)(F)F)c1
EC50 (Streptokinase A): > 150 µM (not active) | AC50 [4]: 5.03 µM (active) | AC50 [5]: 6.99 µM (active) | EC50 (Streptococcus): 44.9 µM (active) | AC50 [6]: 16.1 µM (active) | IC50 (HEK293 [7]): 3.04 µM (active) | AC50 (INS1): 6.07 µM (active) | EC50 (HEK293 [8]): 8.15 µM (active) | IC50 (HEK293 [9]): 6.17 µM (active) | AC50 [10]: 10.5 µM (active) | IC50 (HEK293 [11]): 4.14 µM (inactive) | AC50 [12]: 11 µM (active) | AC50 [13]: 10.9 µM (active) | AC50 [14]: 32 µM (active) | EC50 [15]: 13.3 µM (active) | AC50 [16]: 5.35 µM (active)

COc1ccc2c(c1)c(/C=N/Nc1nc3ccccc3[nH]1)c(C)n2C
AC50 (INS1): 10.2 µM (active) | CC50 (Vero): 13.4 µM (active) | AC50 [17]: 26 µM (active)

Cc1c(Cc2ccccc2)c(=O)oc2cc(O)ccc12
AC50 [3]: 12.6 µM (active)

O=C(Oc1c(CN2CCOCC2)cc(Cl)c2cccnc12)c1cccs1
EC50 [18]: > 160 µM (inactive) | IC50 (Aminopeptidase N): 72.3 µM (active) | AC50 (INS1): 4.67 µM (active) | AC50 [17]: 26 µM (active) | EC50 [19]: 2.63 µM (active)
